# Laboratory results from paper PMC5309247, “A Role of Corazonin Receptor in Larval-Pupal Transition and Pupariation in the Oriental Fruit Fly Bactrocera dorsalis (Hendel) (Diptera: Tephritidae)” (Frontiers in Physiology, 2017).
# Read-outs that look alike come from different tables or passages of the source.
# How the values were obtained:
# DmCrzR = conditions: ref Cazzamali et al., [2002], Park et al., [2002b], cited from earlier work
# Excerpt: (§1) The CrzR is a member of the GPCR family having seven TM domains. Since the first CrzR was identified in Drosophila, homologous receptors have been predicted in several genome databases (Sha et al., [2012]).
# Schistocerca americana = conditions: ref Veenstra, [1991]; cited from earlier work
# Excerpt: (§2) Neuropeptides play a central role in regulating numerous vital physiological systems and behavioral events in diverse insects. The multiple functions of insect neuropeptides make them a prime practical potential target in the development of novel insect control agents (Boonen et al., [2009]).
# BdCrzR = assay: Ca2+ mobilization luminescence (aequorin) assay in BdCrzR-expressing CHO cells; type: cell-based, Bactrocera dorsalis; conditions: for Ca2+ response of BdCrzR-expressing CHO cells: CHO cells with aequorin and Gα16, 10-fold serial dilution of peptide
# Experimental: The ORF for BdCrzR was inserted into the expression vector pcDNA3.1 (+). The correct clone of pcDNA3.1-BdCrzR was confirmed by sequencing (Invitrogen). Chinese Hamster Ovary (CHO) cells, supplemented with aequorin, and Gα16 subunit, were employed for the heterologous expression. The methods for the transfection and the Ca^2+ mobilization assay were performed as previously described (Jiang et al., [2014]). Briefly, cells were transfected with the pcDNA3.1(+)-BdCrzR using TransIT-LT1 transfection reagent (Mirus Bio). At 30 h after the transfection, the cells were collected and incubated with the coelenterazine (Invitrogen) for 2.5 h prior to the functional assay. The cells transfected with the empty pcDNA3.1 vector, were used as a negative control.
# The luminescence assay was performed by measuring the intracellular Ca^2+ mobilization of the transfected CHO cells. A 10-fold serial dilution of the peptides (BdCrz and BmAKH) was applied to the cells. The luminescence caused by the intracellular calcium mobilization was measured within 20 s in every half-second intervals by a TriStar^2 LB 942 Multimode Reader (Berthold Technologies, Bad Wildbad, Germany; Jiang et al., [2013], [2014]). The lowest concentration of BdCrz ligand showing the maximum activation of the receptor, was selected for luminescence normalization. Based on that, a concentration-response curve was calculated for BdCrz by logistic fitting in Origin 8.6 (OriginLab Corporation, Northampton, MA). All experiments were conducted with three biological replicates.
# [1] = test system: head-ligated B. dorsalis larvae; assay: Rescue of larval-pupal transition by peptide injection in head-ligated larvae; type: in vivo, Bactrocera dorsalis; conditions: 0.3 pmol in 300 nL, 24 h post-injection; for rescue of pupariation in head-ligated larvae: in words
# Experimental: The peptides of Crz and ETH of B. dorsalis were synthesized by Genescript (Nanjing, China), and the adipokinetic hormone (AKH) peptide of Bombyx mori (BmAKH) was a gift from Dr. Naiming Zhou (Zhejing University, China; Yang et al., [2013]). The amino acid (aa) sequences for Crz, ETH and AKH were added in Table 1. Plasmids were prepared using the MIDIprep kit as purchased from Qiagen (Valencia, CA). The reagents for cell culture and GPCR assay were purchased from Gibco cell culture at Life Technologies (Grand Island, NY), including fetal bovine serum, DMEM/F12 medium, fungizone, penicillin/streptomycin, and coelenterazine. The transfection reagent (TransIt) was purchased from Mirus Bio (Madison, WI).
# The experimental setup with head-ligated 2-day-old 3rd-instar larvae was based on a previous study (Kim et al., [2004]). […] Upon head-ligation, a series of larvae was injected with Crz (0.3 pmol in 300 nL) or ETH (0.3 pmol in 300 nL). Upon injection larvae were kept on an artificial diet as described above, and we scored pupal development at 24 h post-injection. Per treatment, we used 20 larvae and three biological replicates were conducted. Typical phenotype effects were captured with a Leica M205A stereomicroscope with a camera (Leica Microsystems, Wetzlar, Germany).
# MsCrzR = conditions: ref Kim et al., [2004], cited from earlier work
# Excerpt: as §1
# Bombyx mori larvae = conditions: injection into larvae; ref Tanaka et al., [2002]; cited from earlier work
# Excerpt: Crz is highly conserved with respect to spatial expression pattern, but no clear pattern of function has emerged.
# Periplaneta americana = conditions: ref Veenstra, [1989]; cited from earlier work
# Excerpt: as §2
substance,measurement,setting,value
"DmCrz: Corazonin of Drosophila melanogaster (NP_524350.1) (QTFQYSRGWTN; Corazonin; UniProt Q26377 20-30, looked up)",EC50,DmCrzR; DmCrzR-transfected CHO cells,18 nM
same,EC50,DmCrzR; Xenopus oocyte cells,1 nM
pGln-Thr-Phe-Gln-Tyr-Ser-His-Gly-Trp-Thr-Asn-NH2 [[His^7]-Crz],dark-inducing activity,Schistocerca americana,dark-inducing peptide
"pCys-Glu-Leu-Thr-Phe-Ser-Pro-Asp-Thr-NH2 [BmAKH, adipokinetic hormone (AKH) peptide of Bombyx mori, reference compound]",Ca2+ response of BdCrzR-expressing CHO cells,BdCrzR,no responses
same,Ca2+ response of BdCrzR-expressing CHO cells,BdCrzR; listed as AKH,did not respond
"pGln-Thr-Phe-Gln-Tyr-Ser-His-Gly-Trp-Thr-Ser-NH2 [BdCrz, mature corazonin of Bactrocera dorsalis, …amide, synthesized by Genescript]",EC50,"BdCrzR; CHO cells with aequorin and Gα16, transiently expressing BdCrzR, Ca2+ luminescence within 20 s, logistic fit, three independent measurements, each three replicates",52.5 nM
same,Ca2+ response of BdCrzR-expressing CHO cells,BdCrzR,concentration-dependent Ca^2+ responses
same,head-ligated larvae that made the transition from the larval to the pupal stage,"[1]; 20 larvae per treatment, three biological replicates",97%
same,rescue of pupariation in head-ligated larvae,[1],could rescue the effects
same,EC50,MsCrzR; CHO,0.2 nM
same,EC50,MsCrzR; Xenopus oocyte-expression system,0.075 nM
same,pupal development,Bombyx mori larvae,prolonged pupal development
same,silk spinning rate,Bombyx mori larvae,reduced the silk spinning rate
same,cardioacceleratory activity,Periplaneta americana,cardioacceleratory peptide
"pAsn-Glu-Ser-Pro-Gly-Phe-Phe-Leu-Lys-Ile-Thr-Lys-Asn-Val-Pro-Arg-Leu-NH2 [BdETH, ecdysis-triggering hormone (ETH) of B. dorsalis, synthesized by Genescript, reference compound]",rescue of pupariation in head-ligated larvae,[1],the same result was also observed
